Data on 1 compound can be found in US20240043903A1, “BIOSENSOR USING PET SUBSTRATE, FABRICATION METHOD THEREFOR, AND METHOD FOR INSPECTING SENSITIVITY OF MICROORGANISM TO ANTIBIOTIC BY USING SAME” (priority 2020, published 2024).

The subject of the experiment is E. coli (ATCC25922). The experiment can be described thus: Susceptibility test of microorganism to antibiotic by real-time capacitance change on interdigitated-electrode PET biosensor. Format: cell-based, Escherichia coli. The following applies: antibiotic 0.5 to 8 μg/mL; for susceptibility of E. coli (ATCC25922) to antibiotic: 10^5 cells/mL; for capacitance change after treatment with antibiotic: E. coli (ATCC25922) 10^5 cells/mL. On the procedure: The strain used in the experiment was Escherichia coli (ATCC25922), and a standard strain was purchased from ATCC of the United States and used. For the culture of the strain, the Mueller-Hinton media (MH media), which is a culture medium recommended by the US standard CLSI and European standard EUCAST, was purchased from DIFCO and used according to the recommended preparation method in the product manual. After culturing the strain in the MH media for 24 hours, the strain culture medium was adjusted to McFarland OD 0.5, and then diluted 1/100 with the culture medium (strain concentration: 5×10^5 to 10^6 cfu/mL) and treated on the sensor.
The susceptibility of microorganisms to antibiotics was measured by using the sensors fabricated in Examples 1 and 2.

Setting [1] is: sensor of Example 1 (PET substrate-Ag electrode), FIG. 4b.
Where [2] appears, read: sensor of Example 2 (PET substrate-Au electrode), FIG. 5c.

For the compound `CC1(C)S[C@@H]2[C@H](NC(=O)[C@H](N)c3ccccc3)C(=O)N2[C@H]1C(=O)O` [ampicillin], under setting [1], the “susceptibility of E. coli (ATCC25922) to antibiotic” value is on record as “tolerance (resistance)” and the “capacitance change after treatment with antibiotic” value is reported as “significantly increased capacitance change”. Further, under setting [2], the “susceptibility of E. coli (ATCC25922) to antibiotic” value was “resistance” and the “capacitance change after treatment with antibiotic” value was “capacitance change significantly increased”.
